Data from US20250101041A1, “POSITIVE ALLOSTERIC MODULATORS OF THE MUSCARINIC ACETYLCHOLINE RECEPTOR M4” (Vanderbilt University, priority 2022, published 2025).

Target: T1, human mAChR M4 (Homo sapiens, UniProt P08173)
T1 construct: expressed in transfected cells; host or cells: CHO-K1 (American Type Culture Collection), stably expressing hM4 and Gqi5
T1 sequence (P08173 1-479): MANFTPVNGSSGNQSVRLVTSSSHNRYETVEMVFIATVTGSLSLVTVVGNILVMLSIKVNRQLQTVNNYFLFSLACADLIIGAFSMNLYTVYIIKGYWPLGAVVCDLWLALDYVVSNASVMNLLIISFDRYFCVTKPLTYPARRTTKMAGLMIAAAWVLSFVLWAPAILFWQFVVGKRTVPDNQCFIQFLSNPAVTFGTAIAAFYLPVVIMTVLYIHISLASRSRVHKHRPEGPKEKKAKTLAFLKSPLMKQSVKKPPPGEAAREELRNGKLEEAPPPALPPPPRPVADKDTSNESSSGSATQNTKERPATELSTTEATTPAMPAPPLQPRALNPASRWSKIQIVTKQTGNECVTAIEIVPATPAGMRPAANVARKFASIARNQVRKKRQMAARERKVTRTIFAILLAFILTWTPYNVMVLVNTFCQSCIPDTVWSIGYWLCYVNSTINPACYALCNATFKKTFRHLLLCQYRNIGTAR
Experiment: mAChR M4 cell-based functional assay: calcium mobilization (Fluo-4, FDSS), potentiation of EC20 acetylcholine response in hM4-Gqi5 CHO-K1 cells
Conditions: human M4; for Emax at 30 µM: CHO-K1, % ACh maximum at 30 μM; for EC50: potentiation of EC20 acetylcholine response, calcium mobilization
Outline: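 Readout is the fluorescence-ratio rise at 1 Hz on FDSS, with PAM activity taken as concentration-dependent enhancement of the EC20 acetylcholine response, fitted four-parameter for EC50/Emax. hM4-Gqi5 CHO-K1 cells carried Fluo-4 AM dye; test compounds (11 points, 1:3) preceded EC20 acetylcholine additions at 144 s and 230 s.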

SMILES	Emax at 30 µM [%]	EC50 [nM]
Cc1cc(=O)n2nc(N3CCc4ncc(-c5cnc(Cl)cc5C)cc4C3)c(C)cc2n1 [Compound 1-207, 7-(3-(6-chloro-4-methylpyridin-3-yl)-7,8-dihydro-1,6-naphthyridin-6(5H)-yl)-2,8-dimethyl-4H-pyrimido[1,2-b]pyridazin-4-one]	91	315
Cc1cc(=O)n2nc(N3CCc4ncc(-c5cc(F)c(F)cc5F)cc4C3)c(C)cc2n1 [Compound 1-208, 2,8-dimethyl-7-(3-(2,4,5-trifluorophenyl)-7,8-dihydro-1,6-naphthyridin-6(5H)-yl)-4H-pyrimido[1,2-b]pyridazin-4-one]	86	518
Cc1cc(=O)n2nc(N3CCc4ncc(-c5cnc(F)cc5C)cc4C3)c(C)cc2n1 [Compound 1-209, 7-(3-(6-fluoro-4-methylpyridin-3-yl)-7,8-dihydro-1,6-naphthyridin-6(5H)-yl)-2,8-dimethyl-4H-pyrimido[1,2-b]pyridazin-4-one]	88	266
Cc1cc(=O)n2nc(N3CCc4ncc(-c5cc(F)ccc5C)cc4C3)c(C)cc2n1 [Compound 1-210, 7-(3-(5-fluoro-2-methylphenyl)-7,8-dihydro-1,6-naphthyridin-6(5H)-yl)-2,8-dimethyl-4H-pyrimido[1,2-b]pyridazin-4-one]	84	287
Cc1cc(=O)n2nc(N3CCc4ncc(-c5cccc(F)c5)cc4C3)c(C)cc2n1 [Compound 1-211, 7-(3-(3-fluorophenyl)-7,8-dihydro-1,6-naphthyridin-6(5H)-yl)-2,8-dimethyl-4H-pyrimido[1,2-b]pyridazin-4-one]	76	446
Cc1cc(=O)n2nc(N3CCc4ncc(-c5ccc(F)nc5)cc4C3)c(C)cc2n1 [Compound 1-212, 7-(3-(6-fluoropyridin-3-yl)-7,8-dihydro-1,6-naphthyridin-6(5H)-yl)-2,8-dimethyl-4H-pyrimido[1,2-b]pyridazin-4-one]	83	867
Cc1cc(=O)n2nc(N3CCc4ncc(-c5ccc(F)c(F)c5)cc4C3)c(C)cc2n1 [Compound 1-213, 7-(3-(3,4-difluorophenyl)-7,8-dihydro-1,6-naphthyridin-6(5H)-yl)-2,8-dimethyl-4H-pyrimido[1,2-b]pyridazin-4-one]	82	443
Cc1cc(=O)n2nc(N3CCc4ncc(-c5cnccc5C)cc4C3)c(C)cc2n1 [Compound 1-214, 2,8-dimethyl-7-(3-(4-methylpyridin-3-yl)-7,8-dihydro-1,6-naphthyridin-6(5H)-yl)-4H-pyrimido[1,2-b] pyridazin-4-one]	82	139
Cc1cc(=O)n2nc(N3CCc4ncc(-c5cnn(C(F)F)c5)cc4C3)c(C)cc2n1 [Compound 1-215, 7-(3-(1-(difluoromethyl)-1H-pyrazol-4-yl)-7,8-dihydro-1,6-naphthyridin-6(5H)-yl)-2,8-dimethyl-4H-pyrimido[1,2-b]pyridazin-4-one]	85	338
COc1ccc(-c2cnc3c(c2)CN(c2nn4c(=O)cc(C)nc4cc2C)CC3)cc1F [Compound 1-216, 7-(3-(3-fluoro-4-methoxyphenyl)-7,8-dihydro-1,6-naphthyridin-6(5H)-yl)-2,8-dimethyl-4H-pyrimido[1,2-b]pyridazin-4-one]	79	380
Cc1cc(=O)n2nc(N3CCc4ncc(-c5cn6ccnc6cc5C)cc4C3)c(C)cc2n1 [Compound 1-217, 2,8-dimethyl-7-(3-(7-methylimidazo[1,2-a]pyridin-6-yl)-7,8-dihydro-1,6-naphthyridin-6(5H)-yl)-4H-pyrimido[1,2-b]pyridazin-4-one]	60	655
Cc1cc(=O)n2nc(N3CCc4ncc(-c5c(C)nn(C)c5C)cc4C3)c(C)cc2n1 [Compound 1-218, 2,8-dimethyl-7-(3-(1,3,5-trimethyl-1H-pyrazol-4-yl)-7,8-dihydro-1,6-naphthyridin-6(5H)-yl)-4H-pyrimido[1,2-b] pyridazin-4-one]	92	793
CCn1cc(-c2cnc3c(c2)CN(c2nn4c(=O)cc(C)nc4cc2C)CC3)cn1 [Compound 1-219, 7-(3-(1-ethyl-1H-pyrazol-4-yl)-7,8-dihydro-1,6-naphthyridin-6(5H)-yl)-2,8-dimethyl-4H-pyrimido[1,2-b]pyridazin-4-one]	80	341
Cc1cc(=O)n2nc(N3CCc4ncc(-c5ccc6nccn6c5)cc4C3)c(C)cc2n1 [Compound 1-220, 7-(3-(imidazo[1,2-a]pyridin-6-yl)-7,8-dihydro-1,6-naphthyridin-6(5H)-yl)-2,8-dimethyl-4H-pyrimido[1,2-b]pyridazin-4-one]	70	747
Cc1cc(=O)n2nc(N3CCc4ncc(-c5ccc(N(C)C)nc5)cc4C3)c(C)cc2n1 [Compound 1-221, 7-(3-(6-(dimethylamino)pyridin-3-yl)-7,8-dihydro-1,6-naphthyridin-6(5H)-yl)-2,8-dimethyl-4H-pyrimido[1,2-b]pyridazin-4-one]	58	170
Cc1ccccc1-c1cnc2c(c1)CN(c1nn3c(=O)ccnc3c(C)c1C)CC2 [Compound 1-222, 8,9-dimethyl-7-(3-(o-tolyl)-7,8-dihydro-1,6-naphthyridin-6(5H)-yl)-4H-pyrimido[1,2-b] pyridazin-4-one]	83	74
Cc1c(N2CCc3ncc(-c4cncc(C#N)c4)cc3C2)nn2c(=O)ccnc2c1C [Compound 1-223, 5-(6-(8,9-dimethyl-4-oxo-4H-pyrimido[1,2-b]pyridazin-7-yl)-5,6,7,8-tetrahydro-1,6-naphthyridin-3-yl)nicotinonitrile]	64	618

The next lines start with the values.

Emax at 30 µM [%]	EC50 [nM]	SMILES
60	651	Cc1c(N2CCc3ncc(-c4cnc5ccccc5c4)cc3C2)nn2c(=O)ccnc2c1C [Compound 1-224, 8,9-dimethyl-7-(3-(quinolin-3-yl)-7,8-dihydro-1,6-naphthyridin-6(5H)-yl)-4H-pyrimido[1,2-b]pyridazin-4-one]
66	232	Cc1c(N2CCc3ncc(-c4ccc5nccn5c4)cc3C2)nn2c(=O)ccnc2c1C [Compound 1-225, 7-(3-(imidazo[1,2-a]pyridin-6-yl)-7,8-dihydro-1,6-naphthyridin-6(5H)-yl)-8,9-dimethyl-4H-pyrimido[1,2-b]pyridazin-4-one]
59	1190	Cc1ccc(-c2cnc3c(c2)CN(c2nn4c(=O)cc(CC5CCCC5)nc4c(C)c2C)CC3)cn1 [Compound 1-226, 2-(cyclopentylmethyl)-8,9-dimethyl-7-(3-(6-methylpyridin-3-yl)-7,8-dihydro-1,6-naphthyridin-6(5H)-yl)-4H-pyrimido[1,2-b]pyridazin-4-one]
83	135	COCc1cc(=O)n2nc(N3CCc4ncc(-c5cc(F)ccc5C)cc4C3)c(C)c(C)c2n1 [Compound 1-227, 7-(3-(5-fluoro-2-methylphenyl)-7,8-dihydro-1,6-naphthyridin-6(5H)-yl)-2-(methoxymethyl)-8,9-dimethyl-4H-pyrimido[1,2-b]pyridazin-4-one]
85	34	COCc1cc(=O)n2nc(N3CCc4ncc(-c5cnccc5C)cc4C3)c(C)c(C)c2n1 [Compound 1-228, 2-(methoxymethyl)-8,9-dimethyl-7-(3-(4-methylpyridin-3-yl)-7,8-dihydro-1,6-naphthyridin-6(5H)-yl)-4H-pyrimido[1,2-b] pyridazin-4-one]
90	48	COCc1cc(=O)n2nc(N3CCc4ncc(-c5cnc(F)cc5C)cc4C3)c(C)c(C)c2n1 [Compound 1-229, 7-(3-(6-fluoro-4-methylpyridin-3-yl)-7,8-dihydro-1,6-naphthyridin-6(5H)-yl)-2-(methoxymethyl)-8,9-dimethyl-4H-pyrimido[1,2-b]pyridazin-4-one]
43	1300	Cc1cc(=O)n2nc(N3CCc4ncc(-c5ccccc5C(C)C)cc4C3)c(C)cc2n1 [Compound 1-230, 7-(3-(2-isopropylphenyl)-7,8-dihydro-1,6-naphthyridin-6(5H)-yl)-2,8-dimethyl-4H-pyrimido[1,2-b]pyridazin-4-one]
56	859	Cc1cc(=O)n2nc(N3CCc4ncc(-c5ccccc5C5CC5)cc4C3)c(C)cc2n1 [Compound 1-231, 7-(3-(2-cyclopropylphenyl)-7,8-dihydro-1,6-naphthyridin-6(5H)-yl)-2,8-dimethyl-4H-pyrimido[1,2-b]pyridazin-4-one]
57	441	CCc1ccccc1-c1cnc2c(c1)CN(c1nn3c(=O)cc(C)nc3cc1C)CC2 [Compound 1-232, 7-(3-(2-ethylphenyl)-7,8-dihydro-1,6-naphthyridin-6(5H)-yl)-2,8-dimethyl-4H-pyrimido[1,2-b]pyridazin-4-one]
